Results as given in PubChem BioAssay AID1963847 (Molecular Pharmacology Branch, DTP, NCI, 2024).
Where “and” joins values, the source holds several entries; their conditions need not be identical. Equal entries are not always repeated.

Test system: 415267-285-R-J2-PDC complex spheroid viability
Assay: Anticancer human tumor 415267-285-R-J2-PDC patient-derived breast carcinoma cell line growth inhibition [POLQ]
Settings: for viability, T/C: stronger effect = lower value
Experimental: Multicellular complex tumor spheroid response to Polymerase (POL) inhibitors (novobiocin, ART-558, RP6685) in combination with a variety of drugs and investigational agents in selected tumor cell lines
The POL inhibitors (novobiocin, ART-558, and RP6685) were evaluated both individually and in combination with standard of care and investigational anticancer small molecules within a complex spheroid model of solid tumors. . Complex spheroids include a stromal component modeled by human endothelial cells (HUVEC) and fibroblasts modeled by human mesenchymal stem cells (MSCs). The concentration ranges selected for each drug and investigational agent were based upon clinically achievable concentrations if the clinical Cmax of the agent was known.
Compounds. The drugs and investigational agents: novobiocin (NSC847541), ART-558 (NSC835418), RP-6685 (NSC848927), peposertib (NSC802822), ceralasertib (NSC780249), elimusertib (NSC800525), camonsertib (NSC841442), AZD-1390 (NSC803789), olaparib (NSC753686), talazoparib (NSC767125), rucaparib (NSC756644), sotorasib (NSC818433), MRTX-1133 (NSC836407), SN-38 (NSC673596), topotecan (NSC609699), epotoside (NSC141540), doxorubicin (NSC123127), gemcitabine (NSC613327), 5-fluorouracil (NSC19893), paclitaxel (NSC125973), vemurafenib (NSC761431), MSA-2 (NSC828583), SN-011 (NSC837082), adavosertib (NSC754352), prexasertib (NSC758257), carboplatin (NSC241240) and oxaliplatin (NSC266046), were obtained from the National Cancer Institute (NCI) Developmental Therapeutics Program Chemical Repository (21). The FDA-approved anticancer drug set is available from the Developmental Therapeutics Program at https://dtp.cancer.gov/organization/dscb/obtaining/. […] The stock solutions were prepared in dimethyl sulfoxide (DMSO, Sigma-Aldrich, St. Louis, MO, cat. D2650), except for the platinum compounds which were prepared in saline (Quality Biological, Gaithersburg, MD, cat. 114-055-101), at 800-fold the tested concentration and stored at -70 degrees C prior to their use. All drugs and investigational agents were tested over a range starting from a high concentration at or near the clinical Cmax and decreasing in half-log increments. If the clinical Cmax for an agent had not been determined, the highest concentration tested was 10 microM, except for SN-38, which was tested at a high concentration of 1 microM.
Cell Culture. All cells were maintained in an incubator at 37 degrees C and 5% CO2 with 95% humidity. The PDC lines were cultured according to standard operating procedures established by the NCI PDMR (https://pdmr.cancer.gov). Table 3 of the manuscript, lists the cell lines along with the number of the three cell types plated to form the mct-spheroids and media for tumor cell growth. After thawing, all PDC lines, except 997537-175-T-J1-PDC and 415267-285-R-J2-PDC, were cultured in Matrigel-coated flasks prepared with a working solution of 1X Ham's F-12 nutrient mix, without supplementation (Thermo Fisher Scientific, cat. 11765054), 100 U/mL penicillin-streptomycin (Thermo Fisher Scientific, cat. 15140122), and 2.5% Matrigel (Corning Inc., Corning, NY, cat. 354248) for the first three passages. The two PDC lines 997537-175-T-J1-PDC and 415267-285-R-J2-PDC were cultured on uncoated flasks. The 857933-349-R-J2-PDC line was cultured in 6C/Colon 1B media containing advanced DMEM/F-12 (Thermo Fisher Scientific, cat. 12634028), 10 mM HEPES (Thermo Fisher Scientific, cat. 15630080), 1X GlutaMAX supplement (Thermo Fisher Scientific, cat. 35050061), 0.1 mg/mL primocin (InvivoGen, San Diego, CA, cat. ant-pm-2), 10% defined fetal bovine serum, heat inactivated (HyClone Laboratories Inc., Logan, UT, cat. SH30070.03HI), 50% L-WRN conditioned media (ATCC, cat. CRL-3276), 1.25 mM N-Acetyl-L-cysteine (Sigma-Aldrich, cat. A9165), 10 mM nicotinamide (Sigma-Aldrich, cat. N0636), 1X B-27 supplement (Thermo Fisher Scientific, cat. 17504044), 1X N-2 supplement (Thermo Fisher Scientific, cat. […]
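Note: spheroids exposed to compounds for one week before readout.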
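Throughout, for viability, T/C: luminescence used as stand-in measure of viable cells; 100% = DMSO vehicle control viability.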

C=CCn1c(=O)c2cnc(Nc3ccc(N4CCN(C)CC4)cc3)nc2n1-c1cccc(C(C)(C)O)n1
viability, T/C (compound 0.00316 µM): 93.5% and 109% and 105% | viability, T/C (compound 0.01 µM): 94% and 116% and 97.7% | viability, T/C (compound 0.0316 µM): 106% and 108% and 97.9% | viability, T/C (compound 0.1 µM): 99.5% and 96.9% and 95.5% | viability, T/C (compound 0.316 µM): 46.4% and 73.5% and 68.8% | viability, T/C (compound 1 µM): 7.6% and 7.2% and 5.6% | IC50 (curve of compound): 0.292 µM and 0.471 µM and 0.446 µM

CCc1cc2c(N3CCc4c(cc(Cn5ccnc5)cc4-c4cn(C)nc4C(F)(F)F)C3=O)ccnc2c(OC)n1 + COC1C(OC(N)=O)C(O)C(Oc2ccc3c(O)c(NC(=O)c4ccc(O)c(CC=C(C)C)c4)c(=O)oc3c2C)OC1(C)C
IC50 (curve of first compound, second compound 0.0316 µM): > 10 µM | IC50 (curve of first compound, second compound 0.1 µM): > 10 µM | IC50 (curve of first compound, second compound 0.316 µM): > 10 µM | IC50 (curve of first compound, second compound 1 µM): > 10 µM | IC50 (curve of first compound, second compound 3.16 µM): > 10 µM | IC50 (curve of first compound, second compound 10 µM): > 10 µM | viability, T/C (second compound 0.0316 µM, first compound 0.0316 µM): 92.8% | viability, T/C (second compound 0.0316 µM, first compound 0.1 µM): 74.9% | viability, T/C (second compound 0.0316 µM, first compound 0.316 µM): 88% | viability, T/C (second compound 0.0316 µM, first compound 1 µM): 91.1% | viability, T/C (second compound 0.0316 µM, first compound 3.16 µM): 83% | viability, T/C (second compound 0.0316 µM, first compound 10 µM): 66.3% | viability, T/C (second compound 0.1 µM, first compound 0.0316 µM): 89.4% | viability, T/C (second compound 0.1 µM, first compound 0.1 µM): 87% | viability, T/C (second compound 0.1 µM, first compound 0.316 µM): 83.2% | viability, T/C (second compound 0.1 µM, first compound 1 µM): 83.3% | viability, T/C (second compound 0.1 µM, first compound 3.16 µM): 77.6% | viability, T/C (second compound 0.1 µM, first compound 10 µM): 67.6% | viability, T/C (second compound 0.316 µM, first compound 0.0316 µM): 89.8% | viability, T/C (second compound 0.316 µM, first compound 0.1 µM): 90.9% | viability, T/C (second compound 0.316 µM, first compound 0.316 µM): 71.5% | viability, T/C (second compound 0.316 µM, first compound 1 µM): 81% | viability, T/C (second compound 0.316 µM, first compound 3.16 µM): 75.3% | viability, T/C (second compound 0.316 µM, first compound 10 µM): 71.8% | viability, T/C (second compound 1 µM, first compound 0.0316 µM): 88.6% | viability, T/C (second compound 1 µM, first compound 0.1 µM): 89.6% | viability, T/C (second compound 1 µM, first compound 0.316 µM): 79.5% | viability, T/C (second compound 1 µM, first compound 1 µM): 74.9% | viability, T/C (second compound 1 µM, first compound 3.16 µM): 79.5% | viability, T/C (second compound 1 µM, first compound 10 µM): 63.2% | viability, T/C (second compound 3.16 µM, first compound 0.0316 µM): 97.4% | viability, T/C (second compound 3.16 µM, first compound 0.1 µM): 83.8% | viability, T/C (second compound 3.16 µM, first compound 0.316 µM): 78.8% | viability, T/C (second compound 3.16 µM, first compound 1 µM): 84.5% | viability, T/C (second compound 3.16 µM, first compound 3.16 µM): 73.5% | viability, T/C (second compound 3.16 µM, first compound 10 µM): 70.5% | viability, T/C (second compound 10 µM, first compound 0.0316 µM): 99.2% | viability, T/C (second compound 10 µM, first compound 0.1 µM): 89.8% | viability, T/C (second compound 10 µM, first compound 0.316 µM): 84.9% | viability, T/C (second compound 10 µM, first compound 1 µM): 77.5% | viability, T/C (second compound 10 µM, first compound 3.16 µM): 73.6% | viability, T/C (second compound 10 µM, first compound 10 µM): 72.2%

C=CC(=O)N1CCN(c2nc(=O)n(-c3c(C)ccnc3C(C)C)c3nc(-c4c(O)cccc4F)c(F)cc23)C(C)C1 (stereo not drawn)
viability, T/C (compound 0.0316 µM): 88.5% and 95.7% and 91.3% | viability, T/C (compound 0.1 µM): 105% and 106% and 98.2% | viability, T/C (compound 0.316 µM): 97.6% and 105% and 93.3% | viability, T/C (compound 1 µM): 91% and 116% and 101% | viability, T/C (compound 3.16 µM): 98.9% and 108% and 113% | viability, T/C (compound 10 µM): 103% and 107% and 96.3% | IC50 (curve of compound): > 10 µM

CC(=O)O[C@H]1C(=O)[C@@]2(C)[C@H]([C@H](OC(=O)c3ccccc3)[C@]3(O)C[C@H](OC(=O)[C@H](O)[C@@H](NC(=O)c4ccccc4)c4ccccc4)C(C)=C1C3(C)C)[C@]1(OC(C)=O)CO[C@@H]1C[C@@H]2O
viability, T/C (compound 0.00949 µM): 16.9% and 25% and 13% | viability, T/C (compound 0.03 µM): 9.1% and 9.98% and 8.84% | viability, T/C (compound 0.0949 µM): 8.45% and 7.67% and 7.24% | viability, T/C (compound 0.3 µM): 8.09% and 8.99% and 7.37% | viability, T/C (compound 0.949 µM): 6.85% and 7.15% and 7.58% | viability, T/C (compound 3 µM): 7.67% and 7.6% and 8.18% | IC50 (curve of compound): < 0.00949 µM
